The record followed here is PubChem BioAssay AID2467 (Broad Institute, 2010).

For orientation: EC50 means the concentration giving half of the maximal effect.

The assay deals with C. albicans growth with fluconazole, fluorescence. Description: C. albicans growth with fluconazole, confirmation, fluorescence, retest (AID 2467).

Structures are written as SMILES. Where “and” joins values, the source holds several entries; their conditions need not be identical. Equal values may be shown once. Records with an inconclusive call do not appear. Calls of active or inactive are those of the source. No rule for the calls is given here.

Consider `NC(=NCCCCCCN=C(N)/N=C(\N)Nc1ccc(Cl)cc1)/N=C(\N)Nc1ccc(Cl)cc1`, for which the EC50 was 635 nM and 308 nM and 649 nM.
Regarding `c1cnc2c(c1)ccc1cccnc12`, the EC50 was > 3800 nM (inactive).
